Results taken from patent EP4527843A1, “STEREOISOMERIC PHOSPHATIDYLOLIGOGLYCEROL” (Thermosome GmbH, priority 2023, dated 2025).
Like-named read-outs stand apart in the source and are kept apart here. Blank lines part the entries; values can stand above or below the compound they belong to.

Columns and labels:
Phospholipase A2 = target: T1, Phospholipase A2 (Sus scrofa, UniProt P00592); experiment: Stereospecific cleavage of DPPG2 with Phospholipase A2 (HPLC/CAD); format: in vitro ADME, porcine; conditions: 0.5 U enzyme; for DPPG2 still detectable in the sample: after 10 min, 2 µmol lipid, Tris-buffer pH 8.5 with CaCl2, 37°C, normalized to t=0 min
T1 construct: commercially available enzyme (extracted from porcine pancreas) was used; purchased; host or cells: porcine pancreas (tissue extract)
Description: Phospholipases are enzymes that selectively cleave bonds in glycerophospholipids based on their stereochemistry. They play a role in the metabolization of glycerophospholipids in vivo. Phospholipase A2 hydrolyzes 1,2-acyl-sn-glycero-3-phospholipids to their 1-acyl-sn-glycero-3-phospholipid and the corresponding fatty acid. For the experiments, commercially available enzyme (extracted from porcine pancreas) was used. Lipid samples (2 µmol) were dissolved 1.5 wt% deoxycholate and subsequently incubated in Tris-buffer pH 8.5 supplemented with CaCl2 together with 0.5 U enzyme in a thermoshaker at 37°C. At distinct time points, samples were taken and cleavage was analyzed by HPLC. […] The analytes are separated using a gradient elution using 100 mM NH4Ac pH 6.0 in water and methanol as eluent A and eluent B, respectively. Column oven was set to 35°C.
Three DPPG2 batches differing in configurations of the stereogenic centers in their diglycerol headgroup were tested and DPPC was applied as control glycerophospholipid (Figure 2). […] After 10 min, 14.8%, 20.4%, and 24.3% of DPPG2 according to WO 9730058, WO 2014/202680 A1, and Formula III, respectively, was still detectable in the sample.

[1] = test system: BN175 tumors (soft tissue sarcoma); experiment: Accumulation of DOX in tumor tissue and organs, rat BN175 sarcoma model; format: in vivo, Brown Norway rats
Description: (§1) Eighteen anaesthetized tumor-bearing male Brown Norway rats (-300 g) received a dose of 2 mg/kg DOX of either non-liposomal DOX (n = 6), DPPG2-TSL-DOX (DPPG2 according to formula III) (n = 6), or DPPG2-TSL-DOX (DPPG2 according to WO 97/30059) (n = 6) as i.v. bolus injection, respectively. All animals had two BN175 tumors (soft tissue sarcoma) subcutaneously implanted to each hind leg, respectively. One tumor received 60 min of a local HT treatment with a light source of 41.5°C, whereas the second tumor remained untreated (room temperature, NT). […] Animals were sacrificed after 60 min, organs were perfused, and tumors and organs were collected. DOX content was measured in plasma by HPLC equipped with a fluorescence detector.

[2] = as above; format: in vivo, Brown Norway rats; conditions: male, Brown Norway, rat, 60 min after i.v. bolus 2 mg/kg DOX
Description: as §1

[3] = test system: BN175 tumor (soft tissue sarcoma); conditions: 2 mg/kg DOX single i.v. bolus in combination with 60 min lamp HT (41°C); ranking in words
Description: Finally, the therapeutic efficacy of both DPPG2-TSL-DOX formulations was investigated in vivo and compared to selected clinically relevant DOX formulations (e.g., non-liposomal DOX, Caelyx). […] All animals had one BN175 tumor (soft tissue sarcoma) s.c. implanted to one hind leg. Local HT treatment was performed with a light source. Target temperature was 41 °C. Animals were preheated to this temperature for 30 min and temperature was maintained at 41 °C for 60 min after i.v. bolus injection. Animals treated with a DOX formulation received 2 mg/kg DOX as single i.v. bolus injection after one tumor diameter was > 5 mm. After the end of the treatment, animals were placed back into a cage and tumor growth was monitored every 2nd day until reaching an end point (e.g., tumor diameter > 3 cm, exulzeration, bleeding, skin toxicity).

[4] = PK study in healthy rats after i.v. bolus, normothermia; format: in vivo, Brown Norway rats; conditions: 2 mg/kg DOX i.v. bolus, rat; result in words
Description: For the PK study, 18 anaesthetized healthy male Brown Norway rats (-300 g) received a dose of 2 mg/kg DOX of either non-liposomal DOX (n = 6), DPPG2-TSL-DOX (DPPG2 according to formula III) (n = 6), or DPPG2-TSL-DOX (DPPG2 according to WO 97/30059) (n = 6) as i.v. bolus injection, respectively. Body temperature of the animals was controlled via a rectal temperature probe. During anesthesia, the body temperature of animals was maintained by a water bath (37°C). Blood samples were taken at defined time points. DOX and DPPG2 content were measured in plasma by HPLC equipped with a fluorescence detector and LC/MS, respectively.

T1 sequence (P00592 23-146): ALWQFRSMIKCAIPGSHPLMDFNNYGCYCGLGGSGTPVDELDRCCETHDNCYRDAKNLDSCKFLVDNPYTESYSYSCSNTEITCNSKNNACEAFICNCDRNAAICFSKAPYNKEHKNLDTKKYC

- cleavage by phospholipase A2 compared with DPPG2 (Phospholipase A2; control glycerophospholipid, 37°C): cleaved notably slower than DPPG2
Structure (SMILES): CCCCCCCCCCCCCCCC(=O)OC[C@H](COP(=O)([O-])OCC[N+](C)(C)C)OC(=O)CCCCCCCCCCCCCCC [DPPC, 1,2-dipalmitoyl-sn-glycero-3-phosphocholine]

- DPPG2 still detectable in the sample (Phospholipase A2): 24.3%
Structure (SMILES): CCCCCCCCCCCCCCCC(=O)OC[C@H](COP(=O)(O)OC[C@@H](O)COC[C@H](O)CO)OC(=O)CCCCCCCCCCCCCCC [DPPG2 according to Formula III, 1,2-dipalmitoyl-sn-glycero-3-phospho-sn-1'-glycero-sn-3"-glycerol]

- DPPG2 still detectable in the sample (Phospholipase A2): 14.8%
Structure (SMILES): CCCCCCCCCCCCCCCC(=O)OC[C@H](COP(=O)(O)OCC(O)COCC(O)CO)OC(=O)CCCCCCCCCCCCCCC (mixture of isomers) [DPPG2 according to WO 9730058, 1,2-Dipalmitoyl-sn-glycero-3-phospho-rac-diglycerol]

Structure (SMILES): COc1cccc2c1C(=O)c1c(O)c3c(c(O)c1C2=O)C[C@@](O)(C(=O)CO)C[C@@H]3O[C@H]1C[C@H](N)[C@H](O)[C@H](C)O1 [non-liposomal DOX, doxorubicin]
- DOX accumulation in lung and heart compared to both DPPG2-TSL-DOX formulations ([1]; 60 min after i.v. bolus 2 mg/kg DOX, result in words): significantly higher
- increase of DOX tumor accumulation by HT application (compared to the content in the untreated tumors) ([1]; 60 min local HT 41.5°C light source vs untreated tumor, 2 mg/kg DOX i.v.): 1.6 fold
- concentration at 60 min ([2]; heated BN175 tumor (HT 41.5°C), iv, HT 41.5°C, read-out: DOX concentration in the heated tumors): 3100 ± 500 ng/g
- concentration at 60 min ([2]; untreated BN175 tumor (NT, iv), NT, room temperature, read-out: DOX concentration in the untreated tumors): 1900 ± 300 ng/g
- survival (Kaplan-Meier, 5-fold increase in tumor volume) / therapeutic efficacy [3]: comparable
- DOX plasma clearance [4]: cleared within minutes

- DPPG2 still detectable in the sample (Phospholipase A2): 20.4%
Structure (SMILES): CCCCCCCCCCCCCCCC(=O)OC[C@H](COP(=O)(O)OC[C@@H](O)COCC(O)CO)OC(=O)CCCCCCCCCCCCCCC (stereo partly shown) [DPPG2 according to WO 2014/202680 A1, 1,2-Dipalmitoyl-sn-glycero-3-phospho-sn-1'-diglycerol]
